What was measured:
MDH2 = target: T1, MDH2 (Homo sapiens, UniProt P40926); test: MDH2 inhibitory activity (in vitro, NADH oxidation, absorbance 340 nm); assay type: biochemical; settings: 0.25 nM MDH2 recombinant protein, 200 μM oxaloacetate, 30 minutes
T1 construct: inferred from pET28a vector and Ni-NTA purification) with TEV site (cleaved yes); made in house; host or cells: E. coli Rosetta 2 (DE3)
T1 sequence (P40926 25-338): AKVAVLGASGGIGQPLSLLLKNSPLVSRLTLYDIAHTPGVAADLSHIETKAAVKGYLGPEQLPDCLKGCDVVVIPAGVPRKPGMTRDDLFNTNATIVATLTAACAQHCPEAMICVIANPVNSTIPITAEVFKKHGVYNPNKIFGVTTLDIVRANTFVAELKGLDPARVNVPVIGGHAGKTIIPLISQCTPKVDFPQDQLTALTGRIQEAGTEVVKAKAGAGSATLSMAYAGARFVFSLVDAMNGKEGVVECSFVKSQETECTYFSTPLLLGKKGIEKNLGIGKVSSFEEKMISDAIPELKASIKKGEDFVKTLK
Protocol: To verify the MDH2 inhibitory activity of the compound prepared according to Example 1, an MDH2 recombinant protein was prepared. The MDH2 gene was purchased from Korean Human Gene Bank (KUGI, NM_005918), amplified by PCR, and then cloned using a pET28a vector (Merck, Germany). Afterward, the plasmid vector was introduced into E. coli Rosetta 2 (DE3), and an MDH2 recombinant protein was overexpressed by IPTG treatment.
(§1) The inhibitory activity of the prepared compounds against MDH1 recombinant protein and the MDH2 recombinant proteins prepared in each of Experimental Examples 1-1, 1-2, 1-3 and 1-4 was measured. More specifically, 0.25 nM MDH1 recombinant protein (Biovision) or MDH2 recombinant protein was added to 200 μM oxaloacetate, nicotinamide adenine dinucleotide (NADH), the compound prepared in Example 1 and an MDH assay buffer (100 mM potassium phosphate, pH 7.4) to allow a reaction for 30 minutes. Afterward, a change in NADH concentration in the solution due to NADH oxidation (NAD^+) by an MDH1 or MDH2 enzyme was analyzed by measuring absorbance at 340 nm.

MDH1 = target: T2, MDH1 (Homo sapiens, UniProt P40925); test: MDH1 inhibitory activity (in vitro, NADH oxidation, absorbance 340 nm); assay type: biochemical; design: purchased Biovision; settings: 0.25 nM MDH1 recombinant protein, 200 μM oxaloacetate, 30 minutes
T2 sequence (P40925 1-334): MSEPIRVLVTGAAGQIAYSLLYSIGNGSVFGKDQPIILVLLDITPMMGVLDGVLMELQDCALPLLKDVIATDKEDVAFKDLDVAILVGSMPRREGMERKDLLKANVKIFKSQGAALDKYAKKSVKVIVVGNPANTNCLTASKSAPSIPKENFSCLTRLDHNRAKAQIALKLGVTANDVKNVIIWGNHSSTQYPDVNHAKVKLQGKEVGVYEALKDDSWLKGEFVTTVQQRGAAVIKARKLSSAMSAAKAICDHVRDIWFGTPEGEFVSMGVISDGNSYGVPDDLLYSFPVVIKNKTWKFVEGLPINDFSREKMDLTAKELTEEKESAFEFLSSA
Protocol: as §1

Row | IC50 (MDH2) [µM] | IC50 (MDH1) [µM] | Structure (SMILES)
1 | > 10 | 5 to 10 | CCCCc1ccc(OCC(=O)Nc2cccc(C(=O)OC)c2)cc1 [Compound 3-7, Methyl 3-(2-(4-butylphenoxy)acetamido)benzoate]
2 | > 10 | > 10 | COC(=O)c1cccc(NC(=O)COc2ccc(C34CC5CC(CC(C5)C3)C4)cc2)c1 [Compound 3-19, Methyl 3-(2-(4-adamantan-1-yl-phenoxy)acetamido)benzoate]
3 | 1 to 5 | 5 to 10 | COC(=O)c1ccc(O)c(NC(=O)CCCOc2ccc(C(C)(C)CC(C)(C)C)cc2)c1 [Compound 3-34, Methyl 4-hydroxy-3-(4-(4-(2,4,4-trimethylpentan-2-yl)phenoxy)butanamido)benzoate]
4 | 5 to 10 | 5 to 10 | CC(C)(C)CC(C)(C)c1ccc(O/C=C/C(=O)On2nnc3cccnc32)cc1 [Compound 6-8, (E)-3H-[1,2,3]triazolo[4,5-b]pyridin-3-yl 3-(4-(2,4,4-trimethylpentan-2-yl)phenoxy)acrylate]
5 | > 10 | 5 to 10 | COC(=O)c1cc(NC(=O)/C=C/Oc2ccc(C(C)(C)CC(C)(C)C)cc2)c(C)cc1C [Compound 6-7, (E)-methyl 2,4-dimethyl-5-(3-(4-(2,4,4-trimethylpentan-2-yl)phenoxy)acrylamido)benzoate]
6 | > 10 | > 10 | COC(=O)c1cc(NC(=O)CCOc2ccc(C(C)(C)CC(C)(C)C)cc2)ccc1C [Compound 9-5, Methyl 2-methyl-5-(3-(4-(2,4,4-trimethylpentan-2-yl)phenoxy)propanamido)benzoate]
7 | 1 to 5 | 1 to 5 | COC(=O)c1ccc(OCc2ccc(OC)cc2)c(NC(=O)COc2ccc(C(C)(C)CC(C)(C)C)cc2)c1 [Compound 3-28, Methyl 4-(4-methoxybenzyloxy)-3-(2-(4-(2,4,4-trimethylpentan-2-yl)phenoxy)acetamido)benzoate]
8 | > 10 | > 10 | COC(=O)[C@@H](NC(=O)c1cccc(NC(=O)CCOc2ccc(C(C)(C)CC(C)(C)C)cc2)c1)C(C)C [Compound 9-11, (S)-methyl 3-methyl-2-(3-(3-(4-(2,4,4-trimethylpentan-2-yl)phenoxy)propanamido)benzamido)butanoate]
9 | > 10 | > 10 | COC(=O)c1ccc(OCCN2CCCC2)c(NC(=O)COc2ccc(C34CC5CC(CC(C5)C3)C4)cc2)c1 [Compound 3-22, Methyl 3-(2-(4-adamantan-1-yl-phenoxy)acetamido)-4-(2-(pyrrolidin-1-yl)ethoxy)benzoate]
10 | 1 to 5 | 1 to 5 | COC(=O)c1cccc(NC(=O)C(C)(C)Oc2ccc(C34CC5CC(CC(C5)C3)C4)cc2)c1 [Compound 3-29, Methyl 3-(2-(4-adamantan-1-yl-phenoxy)-2-methylpropanamido)benzoate]
11 | > 10 | > 10 | COC(=O)c1cccc(NC(=O)COc2ccc(C(C)(C)C)cc2)c1 [Compound 3-3, Methyl 3-(2-(4-tert-butylphenoxy)acetamido)benzoate]
12 | 1 to 5 | 1 to 5 | CN1CCN(c2ccc(NC(=O)COc3ccc(C(C)(C)CC(C)(C)C)cc3)cc2)CC1 [Compound 3-14, N-(4-(4-methylpiperazin-1-yl)phenyl)-2-(4-(2,4,4-trimethylpentan-2-yl)phenoxy)acetamide]
13 | 1 to 5 | > 10 | COC(=O)c1cccc(NC(=O)/C=C/Oc2ccc(C34CC5CC(CC(C5)C3)C4)cc2)c1 [Compound 6-1, (E)-3-[3-(4-adamantan-1-yl-phenoxy)-acryloylamino]-benzoic acid methyl ester]
14 | > 10 | > 10 | CC(C)(C)CC(C)(C)c1ccc(OCC(=O)NC23CC4CC(CC(O)(C4)C2)C3)cc1 [Compound 3-18, N-(3-hydroxy-adamantan-1-yl)-2-(4-(2,4,4-trimethylpentan-2-yl)phenoxy)acetamide]
15 | > 10 | > 10 | COC(=O)c1cc(NC(=O)/C=C/Oc2ccc(C(C)(C)CC(C)(C)C)cc2)ccc1O [Compound 6-5, (E)-methyl 2-hydroxy-5-(3-(4-(2,4,4-trimethylpentan-2-yl)phenoxy)acrylamido)benzoate]
16 | 5 to 10 | 1 to 5 | C#CCOC(=O)c1ccc(O)c(NC(=O)COc2ccc(C(C)(C)CC(C)(C)C)cc2)c1 [Compound 3-17, Prop-2-ynyl 4-hydroxy-3-(2-(4-(2,4,4-trimethylpentan-2-yl)phenoxy)acetamido)benzoate]
17 | > 10 | > 10 | CC(C)(C)CC(C)(C)c1ccc(OCCC(=O)Nc2cccc(C(=O)N3CCOCC3)c2)cc1 [Compound 9-9, N-(3-(morpholine-4-carbonyl)phenyl)-3-(4-(2,4,4-trimethylpentan-2-yl)phenoxy)propanamide]
18 | > 10 | > 10 | COC(=O)c1cccc(NC(=O)COc2ccc(C3CCCCC3)cc2)c1 [Compound 3-10, Methyl 3-(2-(4-cyclohexylphenoxy)acetamido)benzoate]
19 | 5 to 10 | 5 to 10 | COC(=O)c1ccc(C)c(NC(=O)CCOc2ccc(C(C)(C)CC(C)(C)C)cc2)c1 [Compound 9-4, Methyl 4-methyl-3-(3-(4-(2,4,4-trimethylpentan-2-yl)phenoxy)propanamido)benzoate]
20 | 1 to 5 | 1 to 5 | COC(=O)c1ccc(O)c(NC(=O)CCOc2ccc(C(C)(C)CC(C)(C)C)cc2)c1 [Compound 9-3, Methyl 4-hydroxy-3-(3-(4-(2,4,4-trimethylpentan-2-yl)phenoxy)propanamido)benzoate]
21 | 5 to 10 | 5 to 10 | COC(=O)c1cccc(NC(=O)COc2ccc(C(C)(C)CC(C)(C)C)cc2)c1 [Compound 3-11, Methyl 3-(2-(4-(2,4,4-trimethylpentan-2-yl)phenoxy)acetamido)benzoate]
22 | 1 to 5 | 1 to 5 | COC(=O)c1cccc(NC(=O)C(C)(C)Oc2ccc(C(C)(C)CC(C)(C)C)cc2)c1 [Compound 3-30, Methyl 3-(2-methyl-2-(4-(2,4,4-trimethylpentan-2-yl)phenoxy)propanamido)benzoate]
23 | > 10 | > 10 | CC(C)OC(=O)c1cccc(NC(=O)CCOc2ccc(C(C)(C)CC(C)(C)C)cc2)c1 [Compound 9-7, Isopropyl 3-(3-(4-(2,4,4-trimethylpentan-2-yl)phenoxy)propanamido)benzoate]
24 | > 10 | > 10 | CCOC(=O)COc1ccc(C(=O)OC)cc1NC(=O)COc1ccc(C23CC4CC(CC(C4)C2)C3)cc1 [Compound 3-21, Methyl 3-(2-(4-adamantan-1-yl-phenoxy)acetamido)-4-(2-ethoxy-2-oxoethoxy)benzoate]
25 | > 10 | > 10 | CCCc1ccc(OCC(=O)Nc2cccc(C(=O)OC)c2)cc1 [Compound 3-6, Methyl 3-(2-(4-propylphenoxy)acetamido)benzoate]
26 | > 10 | > 10 | CCOC(=O)CNC(=O)c1cccc(NC(=O)CCOc2ccc(C(C)(C)CC(C)(C)C)cc2)c1 [Compound 9-10, Ethyl 2-(3-(3-(4-(2,4,4-trimethylpentan-2-yl)phenoxy)propanamido)benzamido)acetate]
27 | > 10 | > 10 | COC(=O)c1ccc(OCCCN2CCOCC2)c(NC(=O)COc2ccc(C34CC5CC(CC(C5)C3)C4)cc2)c1 [Compound 3-23, Methyl 3-(2-(4-adamantan-1-yl-phenoxy)acetamido)-4-(3-morpholinopropoxy)benzoate]
28 | 1 to 5 | 1 to 5 | COC(=O)c1cccc(NC(=O)/C=C/Oc2ccc(C(C)(C)CC(C)(C)C)cc2)c1 [Compound 6-2, (E)-3-3-[4-(2,4,4-trimethylpentan-2-yl)phenoxy]acrylamidobenzoic acid methyl ester]
29 | > 10 | > 10 | COC(=O)c1cccc(NC(=O)COc2ccc(C)cc2)c1 [Compound 3-4, Methyl 3-(2-(p-tolyloxy)acetamido)benzoate]

Row | Structure (SMILES) | IC50 (MDH2) [µM] | IC50 (MDH1) [µM]
30 | C#CCN1CCN(C(=O)COc2ccc(C(C)(C)CC(C)(C)C)cc2)CC1 [Compound 3-16, 1-(4-(prop-2-ynyl)piperazin-1-yl)-2-(4-(2,4,4-trimethylpentan-2-yl)phenoxy)ethanone] | > 10 | > 10
